Measured values: US9783537B2, “3-(4-ethylnylphenyl) pyridopyrimidinone compounds and process for preparation thereof useful as potential anticancer agents” (Council of Scientific & Industrial Research, priority 2013, dated 2017)
Like-named read-outs stand apart in the source and are kept apart here.

What was measured:
HL-60(TB) = assay: SRB 48 h growth assay, Leukemia HL-60(TB); format: cell-based, human
K-562 = assay: SRB 48 h growth assay, Leukemia K-562; format: cell-based, human
RPMI-8226 = assay: SRB 48 h growth assay, Leukemia RPMI-8226; format: cell-based, human; conditions: RPMI-8226, Leukemia
HOP-62 = assay: SRB 48 h growth assay, Non-small Cell Lung HOP-62; format: cell-based, human; conditions: HOP-62, Non-small Cell Lung
NCI-H522 = assay: SRB 48 h growth assay, Non-small Cell Lung NCI-H522; format: cell-based, human
KM12 = assay: SRB 48 h growth assay, Colon KM12; format: cell-based, human
SW-620 = assay: SRB 48 h growth assay, Colon SW-620; format: cell-based, human; conditions: SW-620, Colon
SNB-19 = assay: SRB 48 h growth assay, CNS SNB-19; format: cell-based, human; conditions: SNB-19, CNS
LOX IMVI = assay: SRB 48 h growth assay, Melanoma LOX IMVI; format: cell-based, human
M14 = assay: SRB 48 h growth assay, Melanoma M14; format: cell-based, human
SK-MEL-5 = assay: SRB 48 h growth assay, Melanoma SK-MEL-5; format: cell-based, human; conditions: SK-MEL-5, Melanoma
OVCAR-4 = assay: SRB 48 h growth assay, Ovarian OVCAR-4; format: cell-based, human; conditions: OVCAR-4, Ovarian
OVCAR-8 = assay: SRB 48 h growth assay, Ovarian OVCAR-8; format: cell-based, human; conditions: OVCAR-8, Ovarian
SK-OV-3 = assay: SRB 48 h growth assay, Ovarian SK-OV-3; format: cell-based, human; conditions: SK-OV-3, Ovarian
786-0 = assay: SRB 48 h growth assay, Renal 786-0; format: cell-based, human; conditions: 786-0, Renal
RXF393 = assay: SRB 48 h growth assay, Renal RXF393; format: cell-based, human
TK-10 = assay: SRB 48 h growth assay, Renal TK-10; format: cell-based, human; conditions: TK-10, Renal
MCF7 = assay: SRB 48 h growth assay, Breast MCF7; format: cell-based, human
MDA-MB-231/ATCC = assay: SRB 48 h growth assay, Breast MDA-MB-231/ATCC; format: cell-based, human
HS578T = assay: SRB 48 h growth assay, Breast HS578T; format: cell-based, human
BT-549 = assay: SRB 48 h growth assay, Breast BT-549; format: cell-based, human; conditions: BT-549, Breast
MDA-MB-468 = assay: SRB 48 h growth assay, Breast MDA-MB-468; format: cell-based, human; conditions: MDA-MB-468, Breast
[1] = in vitro anticancer activity, non-small cell lung panel; format: cell-based; conditions: Homo sapiens; nine non-small cell lung cancer cell lines, exposure at least 48 h; read-out: GI50, range over panel
[2] = system: seven colon cancer cell line (COLO 205, HCC-2998, HCT-116, HCT-15, HT29, KM12 and SW-620); assay: in vitro anticancer activity, colon panel; format: cell-based; conditions: Homo sapiens; seven colon cancer cell lines, exposure at least 48 h; read-out: GI50, range over panel
[3] = in vitro anticancer activity, melanoma panel; format: cell-based; conditions: Homo sapiens; nine melanoma cell lines, exposure at least 48 h; read-out: GI50, range over panel
[4] = system: seven ovarian cancer cell lines (IGROV1, OVCAR-3, OVCAR-4, OVCAR-5, OVCAR-8, NCI/ADR-RES and SK-OV-3); assay: in vitro anticancer activity, ovarian panel; format: cell-based; conditions: Homo sapiens, exposure at least 48 h, read-out: GI50, range over panel
[5] = Homo sapiens, read-out: Growth Inhibition GI50
[6] = Homo sapiens, read-out: Log10 GI50 (converted)
[7] = Homo sapiens, read-out: Log10 LC50 (converted)

## C#Cc1ccc(-n2c(/C=C/c3ccc(C(F)(F)F)cc3)nc3ncccc3c2=O)cc1 [4c, (E)-3-(4-Ethynylphenyl)-2-(4-(trifluoromethyl)styryl)pyrido[2,3-d]pyrimidin-4(3H)-one]
HL-60(TB)
  Log10 TGI50: −5.22
HL-60(TB); [5]
  GI50: 2070 nM
HL-60(TB); [6]
  GI50: 2090 nM
HL-60(TB); [7]
  CC50: > 100000 nM
K-562; Homo sapiens, K562, K-562, Leukemia, read-out: Growth Inhibition GI50
  GI50: 2960 nM
K-562; Homo sapiens, K562, K-562, Leukemia, read-out: Log10 GI50 (converted)
  GI50: 2950 nM
K-562; Homo sapiens, K562, K-562, Leukemia, read-out: Log10 LC50 (converted)
  CC50: > 100000 nM
K-562; K-562, Leukemia
  Log10 TGI50: −5.06
RPMI-8226; [5]
  GI50: 1390 nM
RPMI-8226; [6]
  GI50: 1380 nM
RPMI-8226; [7]
  CC50: > 100000 nM
RPMI-8226
  Log10 TGI50: −5.20
HOP-62
  Log10 TGI50: −5.29
HOP-62; [5]
  GI50: 2430 nM
HOP-62; [6]
  GI50: 2450 nM
HOP-62; [7]
  CC50: > 100000 nM
NCI-H522
  Log10 TGI50: −5.51
NCI-H522; [5]
  GI50: 1650 nM
NCI-H522; [6]
  GI50: 1660 nM
NCI-H522; [7]
  CC50: 5750 nM
KM12
  Log10 TGI50: −5.46
KM12; [5]
  GI50: 1790 nM
KM12; [6]
  GI50: 1780 nM
KM12; [7]
  CC50: 6610 nM
SW-620; [5]
  GI50: 1920 nM
SW-620; [6]
  GI50: 1910 nM
SW-620; [7]
  CC50: 7410 nM
SW-620
  Log10 TGI50: −5.42
SNB-19; [5]
  GI50: 1910 nM
SNB-19; [6]
  GI50: 1910 nM
SNB-19; [7]
  CC50: 9550 nM
SNB-19
  Log10 TGI50: −5.37
LOX IMVI
  Log10 TGI50: −5.37
LOX IMVI; [5]
  GI50: 1890 nM
LOX IMVI; [6]
  GI50: 1910 nM
LOX IMVI; [7]
  CC50: 9770 nM
M14
  Log10 TGI50: −5.37
M14; [5]
  GI50: 2070 nM
M14; [6]
  GI50: 2090 nM
M14; [7]
  CC50: 8710 nM
SK-MEL-5; [5]
  GI50: 1490 nM
SK-MEL-5; [6]
  GI50: 1480 nM
SK-MEL-5; [7]
  CC50: 5500 nM
SK-MEL-5
  Log10 TGI50: −5.54
OVCAR-4; [5]
  GI50: 1580 nM
OVCAR-4; [6]
  GI50: 479 nM
OVCAR-4; [7]
  CC50: 6920 nM
OVCAR-4
  Log10 TGI50: −5.48
OVCAR-8; [5]
  GI50: 1870 nM
OVCAR-8; [6]
  GI50: 1860 nM
OVCAR-8; [7]
  CC50: 31600 nM
OVCAR-8
  Log10 TGI50: −5.33
SK-OV-3; [5]
  GI50: 3610 nM
SK-OV-3; [6]
  GI50: 3630 nM
SK-OV-3; [7]
  CC50: 53700 nM
SK-OV-3
  Log10 TGI50: −4.87
786-0
  Log10 TGI50: −5.43
786-0; [5]
  GI50: 2060 nM
786-0; [6]
  GI50: 2040 nM
786-0; [7]
  CC50: 6610 nM
RXF393
  Log10 TGI50: −5.42
RXF393; Homo sapiens, RXF 393, read-out: Growth Inhibition GI50
  GI50: 1790 nM
RXF393; Homo sapiens, RXF 393, read-out: Log10 GI50 (converted)
  GI50: 1780 nM
RXF393; Homo sapiens, RXF 393, read-out: Log10 LC50 (converted)
  CC50: 7940 nM
TK-10; [5]
  GI50: 2190 nM
TK-10; [6]
  GI50: 2190 nM
TK-10; [7]
  CC50: 6310 nM
TK-10
  Log10 TGI50: −5.43
MCF7
  Log10 TGI50: −4.99
MCF7; [5]
  GI50: 2490 nM
MCF7; [6]
  GI50: 2510 nM
MCF7; [7]
  CC50: > 100000 nM
MDA-MB-231/ATCC
  Log10 TGI50: −5.26
MDA-MB-231/ATCC; [5]
  GI50: 2050 nM
MDA-MB-231/ATCC; [6]
  GI50: 2040 nM
MDA-MB-231/ATCC; [7]
  CC50: 60300 nM
HS578T
  Log10 TGI50: >−4.00
HS578T; Homo sapiens, Hs-578T, read-out: Growth Inhibition GI50
  GI50: 3460 nM
HS578T; Homo sapiens, Hs-578T, read-out: Log10 GI50 (converted)
  GI50: 3470 nM
HS578T; Homo sapiens, Hs-578T, read-out: Log10 LC50 (converted)
  CC50: > 100000 nM
BT-549
  Log10 TGI50: −5.47
BT-549; [5]
  GI50: 1710 nM
BT-549; [6]
  GI50: 1700 nM
BT-549; [7]
  CC50: 6610 nM
MDA-MB-468; [5]
  GI50: 1510 nM
MDA-MB-468; [6]
  GI50: 1510 nM
MDA-MB-468; [7]
  CC50: 8710 nM
MDA-MB-468
  Log10 TGI50: −5.44
[1]
  GI50: 1630 to 7450 nM
[2]
  GI50: 2060 to 3260 nM
[3]
  GI50: 510 to 4970 nM
[4]
  GI50: 1950 to 7550 nM
